Experimental data published in ChEMBL document CHEMBL4680251, “Discovery of a 2-pyridinyl urea-containing compound YD57 as a potent inhibitor of apoptosis signal-regulating kinase 1 (ASK1)” (Eur J Med Chem, 2020).

Assays:
[1] = molecular target: T1, Mitogen-activated protein kinase kinase kinase 7 (Homo sapiens, UniProt O43318); experiment: Inhibition of TAK1 (unknown origin)
T1 sequence (O43318 whole entry): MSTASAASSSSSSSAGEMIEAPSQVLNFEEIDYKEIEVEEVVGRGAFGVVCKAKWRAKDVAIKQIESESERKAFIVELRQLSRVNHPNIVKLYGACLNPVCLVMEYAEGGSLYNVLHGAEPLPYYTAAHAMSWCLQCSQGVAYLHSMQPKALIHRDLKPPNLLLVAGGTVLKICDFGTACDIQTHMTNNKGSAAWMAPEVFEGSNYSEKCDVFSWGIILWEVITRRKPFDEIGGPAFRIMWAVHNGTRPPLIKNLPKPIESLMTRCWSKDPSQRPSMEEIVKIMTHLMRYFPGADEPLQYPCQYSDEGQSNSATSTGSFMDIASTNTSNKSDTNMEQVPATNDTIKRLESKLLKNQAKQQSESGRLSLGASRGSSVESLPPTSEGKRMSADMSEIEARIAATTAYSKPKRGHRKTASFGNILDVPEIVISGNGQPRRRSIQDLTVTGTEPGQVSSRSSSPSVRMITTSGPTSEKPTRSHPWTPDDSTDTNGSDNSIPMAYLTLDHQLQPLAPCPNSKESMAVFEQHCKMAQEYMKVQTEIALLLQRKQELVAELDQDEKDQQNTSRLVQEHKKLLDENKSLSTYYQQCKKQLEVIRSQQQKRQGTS

CDK2/Cyclin A2 = CDK2/Cyclin A2 (Homo sapiens, UniProt P24941); experiment: Inhibition of full length human recombinant CDK2/Cyclin A using histone H1 as substrate incubated for 40 mins in presence of [gamma-33ATP] by radiometric scintillation counting analysis; type: protein-complex assay
[2] = molecular target: Non-receptor tyrosine-protein kinase TYK2 (Homo sapiens, UniProt P29597); experiment: Inhibition of human recombinant TYK2 (875 to end residues) using GGMEDIYFEFMGG as substrate incubated for 40 mins in presence of [gamma-33ATP] by radiometric scintillation counting analysis
Chain of Non-receptor tyrosine-protein kinase TYK2 (P29597 whole entry): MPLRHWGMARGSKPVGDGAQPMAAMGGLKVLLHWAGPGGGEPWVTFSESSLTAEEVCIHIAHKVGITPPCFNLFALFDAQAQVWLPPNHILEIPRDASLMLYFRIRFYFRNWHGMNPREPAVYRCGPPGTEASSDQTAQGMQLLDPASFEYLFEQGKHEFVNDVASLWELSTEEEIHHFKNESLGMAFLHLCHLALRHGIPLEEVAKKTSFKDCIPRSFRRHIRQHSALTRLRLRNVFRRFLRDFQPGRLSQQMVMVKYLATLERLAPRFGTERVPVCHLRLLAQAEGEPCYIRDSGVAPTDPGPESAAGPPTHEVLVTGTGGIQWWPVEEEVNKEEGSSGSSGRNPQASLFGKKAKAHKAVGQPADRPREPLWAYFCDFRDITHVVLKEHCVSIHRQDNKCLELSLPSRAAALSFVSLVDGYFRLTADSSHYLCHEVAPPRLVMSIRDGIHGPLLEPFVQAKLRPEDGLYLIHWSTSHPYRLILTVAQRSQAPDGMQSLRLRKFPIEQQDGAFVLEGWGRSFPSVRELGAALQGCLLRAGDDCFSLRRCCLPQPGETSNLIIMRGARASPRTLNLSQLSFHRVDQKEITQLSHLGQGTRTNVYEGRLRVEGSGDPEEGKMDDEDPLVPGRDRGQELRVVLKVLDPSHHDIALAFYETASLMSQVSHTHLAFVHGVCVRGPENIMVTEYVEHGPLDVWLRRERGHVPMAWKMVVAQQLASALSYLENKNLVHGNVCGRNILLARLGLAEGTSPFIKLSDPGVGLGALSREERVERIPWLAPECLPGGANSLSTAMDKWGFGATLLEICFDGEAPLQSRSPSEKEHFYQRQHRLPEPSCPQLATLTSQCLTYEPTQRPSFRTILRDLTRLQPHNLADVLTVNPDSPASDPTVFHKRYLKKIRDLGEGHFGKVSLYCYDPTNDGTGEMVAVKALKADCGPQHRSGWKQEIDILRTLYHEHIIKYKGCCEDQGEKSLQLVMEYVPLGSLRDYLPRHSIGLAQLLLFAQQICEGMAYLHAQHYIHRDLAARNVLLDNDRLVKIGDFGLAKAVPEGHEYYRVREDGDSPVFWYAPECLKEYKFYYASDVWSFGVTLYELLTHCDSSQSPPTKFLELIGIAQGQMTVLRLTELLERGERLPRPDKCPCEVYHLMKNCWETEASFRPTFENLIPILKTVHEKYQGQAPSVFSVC

HepG2 [3] = experiment: Induction of cell cycle arrest in human HepG2 cells assessed as accumulation at S phase at 0.5 uM incubated for 24 hrs by propidium iodide staining based flow cytometry (reference value: 33.27%); type: functional
HepG2 [4] = experiment: Induction of cell cycle arrest in human HepG2 cells assessed as accumulation at G0/G1 phase at 0.5 uM incubated for 24 hrs by propidium iodide staining based flow cytometry (reference value: 38.34%); type: functional
HepG2 [5] = experiment: Induction of cell cycle arrest in human HepG2 cells assessed as accumulation at G0/G1 phase at 1 uM incubated for 24 hrs by propidium iodide staining based flow cytometry (reference value: 38.34%); type: functional
HepG2 [6] = experiment: Induction of cell cycle arrest in human HepG2 cells assessed as accumulation at S phase at 1 uM incubated for 24 hrs by propidium iodide staining based flow cytometry (reference value: 33.27%); type: functional
HepG2 [7] = experiment: Induction of cell cycle arrest in human HepG2 cells assessed as accumulation at G2/M phase at 1 uM incubated for 24 hrs by propidium iodide staining based flow cytometry (reference value: 33.49%); type: functional
HepG2 [8] = experiment: Induction of cell cycle arrest in human HepG2 cells assessed as accumulation at G0/G1 phase at 2 uM incubated for 24 hrs by propidium iodide staining based flow cytometry (reference value: 38.34%); type: functional
HepG2 [9] = experiment: Induction of cell cycle arrest in human HepG2 cells assessed as accumulation at S phase at 2 uM incubated for 24 hrs by propidium iodide staining based flow cytometry (reference value: 33.27%); type: functional
HepG2 [10] = experiment: Induction of cell cycle arrest in human HepG2 cells assessed as accumulation at G2/M phase at 2 uM incubated for 24 hrs by propidium iodide staining based flow cytometry (reference value: 33.49%); type: functional
HepG2 [11] = experiment: Induction of cell cycle arrest in human HepG2 cells assessed as accumulation at G0/G1 phase at 4 uM incubated for 24 hrs by propidium iodide staining based flow cytometry (reference value: 38.34%); type: functional
HepG2 [12] = experiment: Induction of cell cycle arrest in human HepG2 cells assessed as accumulation at S phase at 4 uM incubated for 24 hrs by propidium iodide staining based flow cytometry (reference value: 33.27%); type: functional
HepG2 [13] = experiment: Induction of cell cycle arrest in human HepG2 cells assessed as accumulation at G2/M phase at 4 uM incubated for 24 hrs by propidium iodide staining based flow cytometry (reference value: 33.49%); type: functional
HepG2 [14] = experiment: Induction of cell cycle arrest in human HepG2 cells assessed as accumulation at G0/G1 phase at 8 uM incubated for 24 hrs by propidium iodide staining based flow cytometry (reference value: 38.34%); type: functional
HepG2 [15] = experiment: Induction of cell cycle arrest in human HepG2 cells assessed as accumulation at S phase at 8 uM incubated for 24 hrs by propidium iodide staining based flow cytometry (reference value: 33.27%); type: functional
HepG2 [16] = experiment: Induction of cell cycle arrest in human HepG2 cells assessed as accumulation at G2/M phase at 8 uM incubated for 24 hrs by propidium iodide staining based flow cytometry (reference value: 33.49%); type: functional
HepG2 [17] = experiment: Induction of cell cycle arrest in human HepG2 cells assessed as accumulation at G0/G1 phase at 16 uM incubated for 24 hrs by propidium iodide staining based flow cytometry (reference value: 38.34%); type: functional
HepG2 [18] = experiment: Induction of cell cycle arrest in human HepG2 cells assessed as accumulation at S phase at 16 uM incubated for 24 hrs by propidium iodide staining based flow cytometry (reference value: 33.27%); type: functional

Compound: C[C@H](CO)n1cnnc1-c1cccc(NC(=O)Nc2cc3ccccn3n2)n1
- IC50 [1]: 4980 nM
- IC50 (CDK2/Cyclin A2): 352 nM
- IC50 [2]: 1690 nM
- Activity (HepG2 [3]): 31.94%
- Activity (HepG2 [4]): 46.22%
- Activity (HepG2 [5]): 60.13%
- Activity (HepG2 [6]): 11.7%
- Activity (HepG2 [7]): 30.59%
- Activity (HepG2 [8]): 63.79%
- Activity (HepG2 [9]): 7.15%
- Activity (HepG2 [10]): 34.32%
- Activity (HepG2 [11]): 66.33%
- Activity (HepG2 [12]): 7.9%
- Activity (HepG2 [13]): 34.25%
- Activity (HepG2 [14]): 66.65%
- Activity (HepG2 [15]): 8.95%
- Activity (HepG2 [16]): 35.02%
- Activity (HepG2 [17]): 69.77%
- Activity (HepG2 [18]): 9.63%
